The results in this text go back to US20260022142A1, “MACROCYCLIC IMMUNOMODULATORS” (Bristol-Myers Squibb Company, priority 2022, published 2026).

Numbered stars: 1 amine (or outer) side, 2 acyl side, 3 side chain; on linkers, the order of the positions; unused ones are H or OH. Bridge positions count the residues as written; N and C are the ends. Square brackets hold non-standard residues; d marks the D form. Peptide text beside a SMILES is read from it. * marks the point of attachment. ξ: configuration not given here. Phe(3-CF3) = N[C@@H](Cc1cccc(C(F)(F)F)c1)C(=O)O; Phe(4-COOH) = N[C@@H](Cc1ccc(C(=O)O)cc1)C(=O)O; Bip = N[C@@H](Cc1ccc(-c2ccccc2)cc1)C(=O)O; d(βAsp) = O=C(O)[C@@H](CC(=O)[*:2])N[*:1]; NH(CH2)16COOH = O=C(O)CCCCCCCCCCCCCCCCN*; NH(CH2)14COOH = O=C(O)CCCCCCCCCCCCCCN*; Phe(3-Me) = Cc1cccc(C[C@H](N)C(=O)O)c1; γGlu = O=C(O)[C@H](CCC(=O)[*:2])N[*:1]; NH(CH2)12COOH = O=C(O)CCCCCCCCCCCCN*; Val(3-OH) = CC(C)(O)[C@H](N)C(=O)O; Cha = N[C@@H](CC1CCCCC1)C(=O)O; Thr(3ξ) = CC(O)[C@H](N)C(=O)O; Carboxymethyl = O=C(O)C*; Orn = NCCC[C@H](N)C(=O)O; Dab = NCC[C@H](N)C(=O)O; AEEA = NCCOCCOCC(=O)O; ξC = NC(CS)C(=O)O

T1 sequence (Q15116 25-288): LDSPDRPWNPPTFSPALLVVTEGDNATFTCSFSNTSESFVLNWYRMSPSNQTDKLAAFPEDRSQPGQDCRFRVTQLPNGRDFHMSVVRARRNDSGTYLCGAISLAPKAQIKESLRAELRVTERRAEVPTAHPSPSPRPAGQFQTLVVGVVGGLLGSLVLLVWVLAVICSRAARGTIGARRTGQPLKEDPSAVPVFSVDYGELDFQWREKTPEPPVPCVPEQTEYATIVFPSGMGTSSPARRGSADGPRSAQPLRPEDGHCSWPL

The assay addresses T1, PD-1/PD-L1 interaction (PE-labeled human PD-L1-Ig binding to Jurkat cell line over-expressing human PD-1) (Homo sapiens, UniProt Q15116).
T1 construct: expressed in transfected cells; host or cells: Jurkat
Briefly: Jurkat-PD-1 Cell Binding High-Content Screening Assay (CBA). As to conditions: Jurkat cell line over-expressing human PD-1; PE-labeled PD-L1-Ig 20 nM final; read-out: Jurkat hPD1-PDL1 IC50. Type of assay: cell-based. An outline of the steps: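 Human PD-L1-Ig carrying a covalent PE label on its Ig tag serves as the probe, applied at 20 nM final to compound-treated (2 h, 37° C) Jurkat-hPD-1 cells in medium with 10% fetal calf serum. After one hour, fixation and nuclear staining precede high-content image analysis.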
Usually IC50 stands for the midpoint of a concentration-inhibition curve. With `CC(C)C[C@H]1NC(=O)[C@H](CCCN)NC(=O)[C@H](Cc2ccc(OCC(=O)O)cc2)NC(=O)[C@H](Cc2ccc(-c3ccccc3)cc2)NC(=O)[C@H](Cc2ccc(OCC(=O)O)cc2)NC(=O)[C@H](Cc2cccc(C(F)(F)F)c2)NC(=O)[C@H](CC(=O)O)NC(=O)[C@H](Cc2ccc(OCC(=O)O)cc2)NC(=O)[C@H](Cc2c[nH]cn2)NC(=O)CSC[C@@H](C(=O)N[C@@H](CCN)C(=O)NCCCCCCCCCCCCCCC(=O)O)NC(=O)[C@H](CCC(=O)O)NC(=O)[C@H](C(C)(C)O)NC(=O)[C@H](CC2CCCCC2)NC(=O)[C@H](CCN)NC1=O` [Compound 3868] ({CH2CO}-HY(Carboxymethyl)D[Phe(3-CF3)]Y(Carboxymethyl)[Bip]Y(Carboxymethyl)[Orn][dL][Dab][Cha][Val(3-OH)]EC[Dab]-{NH(CH2)14COOH}; thioether N-14), the IC50 is 156 nM.
With `Cc1cccc(C[C@@H]2NC(=O)[C@H](CC(=O)O)NC(=O)[C@H](Cc3ccc(OCC(=O)O)cc3)NC(=O)[C@H](C)NC(=O)CSC[C@@H](C(=O)N[C@@H](CCN)C(=O)NCCOCCOCC(=O)NCCOCCOCC(=O)NCCOCCOCC(=O)NCCOCCOCC(=O)NCCCCCCCCCCCCCCC(=O)O)NC(=O)[C@H](CO)NC(=O)[C@H](C(C)(C)O)NC(=O)[C@H](CC3CCCCC3)NC(=O)[C@H](CCN)NC(=O)[C@@H](CC(C)C)NC(=O)[C@H](CCCN)NC(=O)[C@H](Cc3ccc(OCC(=O)O)cc3)NC(=O)[C@H](Cc3ccc(-c4ccccc4)cc3)NC(=O)[C@H](Cc3ccc(OCC(=O)O)cc3)NC2=O)c1` [Compound 3869] ({CH2CO}-AY(Carboxymethyl)D[Phe(3-Me)]Y(Carboxymethyl)[Bip]Y(Carboxymethyl)[Orn][dL][Dab][Cha][Val(3-OH)]SC[Dab][AEEA][AEEA][AEEA][AEEA]-{NH(CH2)14COOH}; thioether N-14) the figure was 71.1 nM.
With `Cc1cccc(C[C@@H]2NC(=O)[C@H](CC(=O)O)NC(=O)[C@H](Cc3ccc(OCC(=O)O)cc3)NC(=O)[C@H](C)NC(=O)CSC[C@@H](C(=O)N[C@@H](CCN)C(=O)NCCOCCOCC(=O)NCCOCCOCC(=O)NCCOCCOCC(=O)NCCOCCOCC(=O)NCCCCCCCCCCCCCCC(=O)O)NC(=O)[C@H](Cc3cnc[nH]3)NC(=O)[C@H](C(C)(C)O)NC(=O)[C@H](CC3CCCCC3)NC(=O)[C@H](CCN)NC(=O)[C@@H](CC(C)C)NC(=O)[C@H](CCCN)NC(=O)[C@H](Cc3ccc(OCC(=O)O)cc3)NC(=O)[C@H](Cc3ccc(-c4ccccc4)cc3)NC(=O)[C@H](Cc3ccc(OCC(=O)O)cc3)NC2=O)c1` [Compound 3870] ({CH2CO}-AY(Carboxymethyl)D[Phe(3-Me)]Y(Carboxymethyl)[Bip]Y(Carboxymethyl)[Orn][dL][Dab][Cha][Val(3-OH)]HC[Dab][AEEA][AEEA][AEEA][AEEA]-{NH(CH2)14COOH}; thioether N-14) the figure was 28 nM; with `Cc1cccc(C[C@@H]2NC(=O)[C@H](CC(=O)O)NC(=O)[C@H](Cc3ccc(OCC(=O)O)cc3)NC(=O)[C@H](C)NC(=O)CSC[C@@H](C(=O)N[C@@H](CCN)C(=O)NCCOCCOCC(=O)NCCOCCOCC(=O)N[C@@H](CCC(=O)N[C@@H](CCC(=O)NCCCCCCCCCCCCCCCCC(=O)O)C(=O)O)C(=O)O)NC(=O)[C@H](Cc3c[nH]cn3)NC(=O)[C@H](C(C)(C)O)NC(=O)[C@H](CC3CCCCC3)NC(=O)[C@H](CCN)NC(=O)[C@@H](CC(C)C)NC(=O)[C@H](CCCN)NC(=O)[C@H](Cc3ccc(OCC(=O)O)cc3)NC(=O)[C@H](Cc3ccc(-c4ccccc4)cc3)NC(=O)[C@H](Cc3ccc(OCC(=O)O)cc3)NC2=O)c1` [Compound 3871] ({CH2CO}-AY(Carboxymethyl)D[Phe(3-Me)]Y(Carboxymethyl)[Bip]Y(Carboxymethyl)[Orn][dL][Dab][Cha][Val(3-OH)]HC[Dab][AEEA][AEEA][γGlu][γGlu]-{NH(CH2)16COOH}; thioether N-14), 45.7 nM; with `CC(C)C[C@H]1NC(=O)[C@H](CCCN)NC(=O)[C@H](Cc2ccc(OCC(=O)O)cc2)NC(=O)[C@H](Cc2ccc(-c3ccccc3)cc2)NC(=O)[C@H](Cc2ccc(OCC(=O)O)cc2)NC(=O)[C@H](Cc2cccc(C(F)(F)F)c2)NC(=O)[C@H](CC(=O)O)NC(=O)[C@H](Cc2ccc(OCC(=O)O)cc2)NC(=O)[C@H](Cc2ccc(OCC(=O)O)cc2)NC(=O)CSC[C@@H](C(=O)N[C@@H](CCN)C(=O)NCCOCCOCC(=O)NCCOCCOCC(=O)N[C@@H](CCC(=O)N[C@@H](CCC(=O)NCCCCCCCCCCCCCCC(=O)O)C(=O)O)C(=O)O)NC(=O)[C@H](Cc2cnc[nH]2)NC(=O)[C@H](C(C)(C)O)NC(=O)[C@H](CC2CCCCC2)NC(=O)[C@H](CCN)NC1=O` [Compound 3872] ({CH2CO}-Y(Carboxymethyl)Y(Carboxymethyl)D[Phe(3-CF3)]Y(Carboxymethyl)[Bip]Y(Carboxymethyl)[Orn][dL][Dab][Cha][Val(3-OH)]HC[Dab][AEEA][AEEA][γGlu][γGlu]-{NH(CH2)14COOH}; thioether N-14), 174 nM.
On to `CC(C)C[C@@H]1NC(=O)CSC[C@@H](C(=O)N[C@@H](CCN)C(=O)NCCCCCCCCCCCCC(=O)O)NC(=O)[C@H](Cc2cnc[nH]2)NC(=O)[C@H](C(C)(C)O)NC(=O)[C@H](CC2CCCCC2)NC(=O)[C@H](CCN)NC(=O)[C@@H](CC(C)C)NC(=O)[C@H](CCCN)NC(=O)[C@H](Cc2ccc(OCC(=O)O)cc2)NC(=O)[C@H](Cc2ccc(-c3ccccc3)cc2)NC(=O)[C@H](Cc2ccc(OCC(=O)O)cc2)NC(=O)[C@H](Cc2cccc(C(F)(F)F)c2)NC(=O)[C@H](CC(=O)O)NC(=O)[C@H](Cc2ccc(OCC(=O)O)cc2)NC1=O` [Compound 3873] ({CH2CO}-LY(Carboxymethyl)D[Phe(3-CF3)]Y(Carboxymethyl)[Bip]Y(Carboxymethyl)[Orn][dL][Dab][Cha][Val(3-OH)]HC[Dab]-{NH(CH2)12COOH}; thioether N-14), for which the IC50 turned out to be 70.5 nM.
With `CC(C)C[C@@H]1NC(=O)CSC[C@@H](C(=O)N[C@@H](CCN)C(=O)NCCCCCCCCCCCCCCC(=O)O)NC(=O)[C@H](CCC(=O)O)NC(=O)[C@H](C(C)(C)O)NC(=O)[C@H](CC2CCCCC2)NC(=O)[C@H](CCN)NC(=O)[C@@H](CC(C)C)NC(=O)[C@H](CCCN)NC(=O)[C@H](Cc2ccc(OCC(=O)O)cc2)NC(=O)[C@H](Cc2ccc(-c3ccccc3)cc2)NC(=O)[C@H](Cc2ccc(OCC(=O)O)cc2)NC(=O)[C@H](Cc2cccc(C(F)(F)F)c2)NC(=O)[C@H](CC(=O)O)NC(=O)[C@H](Cc2ccc(OCC(=O)O)cc2)NC1=O` [Compound 3874] ({CH2CO}-LY(Carboxymethyl)D[Phe(3-CF3)]Y(Carboxymethyl)[Bip]Y(Carboxymethyl)[Orn][dL][Dab][Cha][Val(3-OH)]EC[Dab]-{NH(CH2)14COOH}; thioether N-14) the figure was 815 nM; with `CC(=O)NCCCC[C@@H]1NC(=O)[C@H](C(C)(C)O)NC(=O)[C@H](CC2CCCCC2)NC(=O)[C@H](CCN)NC(=O)[C@@H](CC(C)C)NC(=O)[C@H](CCCN)NC(=O)[C@H](CCC(N)=O)NC(=O)[C@H](Cc2ccc(-c3ccccc3)cc2)NC(=O)[C@H](Cc2ccc(OCC(=O)O)cc2)NC(=O)[C@H](Cc2cccc(C(F)(F)F)c2)NC(=O)[C@H](CC(=O)O)NC(=O)[C@H](Cc2ccc(OCC(=O)O)cc2)NC(=O)[C@H](Cc2ccc(OCC(=O)O)cc2)NC(=O)CSC[C@@H](C(=O)N[C@@H](CCN)C(=O)NCCCCCCCCCCCCCCC(=O)O)NC1=O` [Compound 3875] ({CH2CO}-Y(Carboxymethyl)Y(Carboxymethyl)D[Phe(3-CF3)]Y(Carboxymethyl)[Bip]Q[Orn][dL][Dab][Cha][Val(3-OH)]K(Ac)C[Dab]-{NH(CH2)14COOH}; thioether N-14), 147 nM.
With `Cc1cccc(C[C@@H]2NC(=O)[C@H](CC(=O)O)NC(=O)[C@H](Cc3ccc(OCC(=O)O)cc3)NC(=O)[C@H](CC(C)C)NC(=O)CSC[C@@H](C(=O)N[C@@H](CCN)C(=O)NCCOCCOCC(=O)N[C@H](CC(=O)NCCOCCOCC(=O)NCCCCCCCCCCCCC(=O)O)C(=O)O)NC(=O)[C@H](CCC(=O)O)NC(=O)[C@H](C(C)(C)O)NC(=O)[C@H](CC3CCCCC3)NC(=O)[C@H](CCN)NC(=O)[C@@H](CC(C)C)NC(=O)[C@H](CCCN)NC(=O)[C@H](Cc3ccc(OCC(=O)O)cc3)NC(=O)[C@H](Cc3ccc(-c4ccccc4)cc3)NC(=O)[C@H](Cc3ccc(OCC(=O)O)cc3)NC2=O)c1` [Compound 3877] ({CH2CO}-LY(Carboxymethyl)D[Phe(3-Me)]Y(Carboxymethyl)[Bip]Y(Carboxymethyl)[Orn][dL][Dab][Cha][Val(3-OH)]EC[Dab][AEEA][d(βAsp)][AEEA]-{NH(CH2)12COOH}; thioether N-14) the figure was 26.3 nM; with `CC(=O)NCCCC[C@@H]1NC(=O)[C@H](C(C)(C)O)NC(=O)[C@H](CC2CCCCC2)NC(=O)[C@H](CCN)NC(=O)[C@@H](CC(C)C)NC(=O)[C@H](CCCN)NC(=O)[C@H](CCC(N)=O)NC(=O)[C@H](Cc2ccc(-c3ccccc3)cc2)NC(=O)[C@H](Cc2ccc(C(=O)O)cc2)NC(=O)[C@H](Cc2cccc(C(F)(F)F)c2)NC(=O)[C@H](CC(=O)O)NC(=O)[C@H](Cc2ccc(OCC(=O)O)cc2)NC(=O)[C@H](Cc2ccc(OCC(=O)O)cc2)NC(=O)CSC[C@@H](C(=O)N[C@@H](CCN)C(=O)NCCCCCCCCCCCCC(=O)O)NC1=O` [Compound 3881] ({CH2CO}-Y(Carboxymethyl)Y(Carboxymethyl)D[Phe(3-CF3)][Phe(4-COOH)][Bip]Q[Orn][dL][Dab][Cha][Val(3-OH)]K(Ac)C[Dab]-{NH(CH2)12COOH}; thioether N-14), 24.5 nM.
With `Cc1cccc(C[C@@H]2NC(=O)[C@H](CC(=O)O)NC(=O)[C@H](Cc3ccc(OCC(=O)O)cc3)NC(=O)[C@H](C(C)O)NC(=O)CSCC(C(=O)N[C@@H](CCN)C(=O)NCCCCCCCCCCCCC(=O)O)NC(=O)[C@H](CO)NC(=O)[C@H](C(C)(C)O)NC(=O)[C@H](CC3CCCCC3)NC(=O)[C@H](CCN)NC(=O)[C@@H](CC(C)C)NC(=O)[C@H](CCCN)NC(=O)[C@H](CCCNC(=N)N)NC(=O)[C@H](Cc3ccc(-c4ccccc4)cc3)NC(=O)[C@H](Cc3ccc(O)cc3)NC2=O)c1` (stereo partly drawn) [Compound 3882] ({CH2CO}-[Thr(3ξ)]Y(Carboxymethyl)D[Phe(3-Me)]Y[Bip]R[Orn][dL][Dab][Cha][Val(3-OH)]S[ξC][Dab]-{NH(CH2)12COOH}; thioether N-14) the figure was 26.8 nM.
